Test results: patent US10875890B2, “Peptide inhibitors targeting the Neisseria gonorrhoeae pivotal anaerobic respiration factor AniA” (priority 2017, dated 2020)
Read-outs that look alike come from different tables or passages of the source. Where a SMILES comes first, the peptide text is derived from it. The star is where a group is joined. Biotin = O=C1N[C@H]2[C@H](CS[C@H]2CCCCC(=O)*)N1; Ahx = NCCCCCC(=O)O

Tests used:
sAniA [1] = biological target: T1, sAniA (Neisseria gonorrhoeae, UniProt Q02219); test: Phage ELISA of phage-displayed peptides on sAniA-coated wells; assay type: binding; conditions: 10^10 PFU per well, absorbance at 450 nm
T1 construct: wild type protein which lacks the N-terminal palmitoylation signal, sAniA; 6xHis (C); made in house; host or cells: Escherichia coli BL21(DE3)
T1 sequence (Q02219 whole entry, looked up): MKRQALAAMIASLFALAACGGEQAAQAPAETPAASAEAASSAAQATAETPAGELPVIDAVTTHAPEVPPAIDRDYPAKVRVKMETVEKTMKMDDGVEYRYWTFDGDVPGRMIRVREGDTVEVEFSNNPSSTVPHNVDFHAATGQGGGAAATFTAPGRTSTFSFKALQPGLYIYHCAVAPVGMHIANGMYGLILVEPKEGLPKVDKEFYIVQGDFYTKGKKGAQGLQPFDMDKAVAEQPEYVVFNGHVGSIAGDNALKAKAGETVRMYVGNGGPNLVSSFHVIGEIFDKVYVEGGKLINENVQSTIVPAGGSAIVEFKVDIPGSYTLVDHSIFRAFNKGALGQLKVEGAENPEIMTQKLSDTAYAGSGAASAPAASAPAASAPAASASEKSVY
Protocol: Phage Enzyme-linked Immunosorbent Assay (Phage ELISA). Individual wells in 96-well transparent plates (Greiner-Bio) were coated with 100 μL of 100 μg/mL of sAniA suspended in 0.1 M NaHCO3pH 8.6 and incubated overnight at 4° C. in an airtight humidified box. After incubation, excess target solution was shaken out and wells were filled with 300 μL of blocking buffer (0.1 M NaHCO3pH 8.6, 5 mg/mL BSA). Following 2 h incubation at 4° C., blocking buffer was removed and wells were washed six times with 200 μL of TBST (50 mM Tris-HCl pH 8.6, 150 mM NaCl, 0.5% Tween). Isolated individual phage amplifications (10^10 PFU) in 100 μl of TBST were incubated at room temperature for 1 h with rocking. All wells were then cleared by shaking and washed six times with 200 μL of TBST. A solution containing Anti-M13 HRP linked-Monoclonal Antibodies (NEB) (1:5,000 dilution in blocking buffer) was distributed at 200 μL per well and incubated with rocking at room temperature for 1 h. Wells were washed six times with TBST and incubated with Turbo TMB-ELISA for 30 min with rocking at room temperature. To stop the reaction, finally 100 μL of 1.78 M H2SO4 was added to each well. […] Data from seven independent experiments are shown with mean and SEM

[2] = biological target: T2, sAniA (recombinant AniA nitrite reductase) (Neisseria gonorrhoeae, UniProt Q02219); test: Inhibition of nitrite reductase activity of purified sAniA (fluorometric DAN nitrite assay); assay type: biochemical; conditions: peptide 0 to 100 μM, DAN nitrite consumption assay
T2 construct: wild type protein which lacks the N-terminal palmitoylation signal, sAniA; 6xHis (C); made in house; host or cells: Escherichia coli BL21(DE3)
T2 sequence (Q02219 whole entry, looked up): T1 sequence (Q02219 whole entry, looked up)
Protocol: (§1) Measurements of Nitrite Reductase Activity with Purified AniA Variants. Enzymatic activity assessments with sAniA and AniA D137A H280A were performed based upon previous work (Boulanger and Murphy 2002, J Mol Biol 315:1111-27; Kakutani et al. 1981, J Biochem 89:463-72) but using a highly sensitive fluorometric assay for nitrite measurements that relies on the reaction of nitrite with 2,3-diaminonapthalene (DAN) to form the fluorescent product, 1-(H)-naphtothriazole (Misko et al. 1993, Anal Biochem 214:11-6). All reactions were conducted under anoxic or microoxic conditions. Fluorescence was measured at excitation of 360/40 nm and emission of 460/40 nm at a gain of 50 using a Synergy HT Plate Reader (BioTek). The sAniA and AniA D137AH280A activities are expressed as the mean reaction rate (nmoles of nitrite reduced/min/[…]) from at least ten independent experiments over the course of a nitrite utilization assay (Shewell et al. 2013, Biochem Biophys Res Commun 431:215-20).
(§2) Determination of Peptides Inhibitory Concentrations Required to Reduce the Signal by 50% (IC50s). […] Nitrite measurements with DAN were performed as described above after pre-incubation of samples for 1 h at room temperature. Control reactions consisted of sAniA alone and AniA D137A H280A treated in the same manner as the experimental samples. Reactions were performed in at least twelve independent experiments. Percent inhibition was calculated using the formula % I=100*(1−(x−y)/(z−y)) where “x”, “y” and “z” are the concentrations of nitrite in samples containing sAniA incubated with synthetic peptides, AniA D137A H280A and sAniA, respectively. The data were analyzed with a nonlinear log(inhibitor) vs. response—variable slope (four parameters) curve-fitting technique (GraphPad) to obtain […]. All experiments were performed in at least ten independent trials.

[3] = test system: AniA nitrite reductase activity of intact N. gonorrhoeae FA1090 ΔaniA/PlacaniA cells; assay type: cell-based, Neisseria gonorrhoeae; conditions: for Inhibition of nitrite reductase activity of intact gonococci: FA1090 ΔaniA/PlacaniA
Protocol: Whole Cell Nitrite Utilization Studies. The FA1090 ΔaniA/Plac::aniA and ΔaniA/Plac::D137AH280A were grown to OD600˜1.0, gently spun down, decanted and re-suspended in GCBL. […] Subsequently, 0.1 mM sodium nitrite was added and the samples were transferred into an anaerobic chamber. After 1 h, nitrite consumption was measured using Griess Reagent (Biotium) as previously described for N. gonorrhoeae nitrite reductase whole cell assay (Shewell et al. 2013, Biochem Biophys Res Commun 431:215-20). Absorbance values were measured at OD545 using a Synergy HT plate reader and nitrite concentration was assessed against a nitrite standard prepared in GCBL. Percent inhibition was calculated using the formula % 1=100*(1−(x−y)/(z−y)) where “x”, “y” and “z” are the concentrations of nitrite in samples containing FA1090 ΔaniA/PlacaniA incubated with synthetic peptides, ΔaniA/PlacaniA D137A H280A and ΔaniA/PlacaniA, respectively. Experiments were performed on at least three separate occasions and mean with SEM are reported.

[4] = biological target: T3, sAniA (recombinant AniA nitrite reductase) (Neisseria gonorrhoeae, UniProt Q02219); test: Inhibition of nitrite reductase activity of purified sAniA (fluorometric DAN nitrite assay); assay type: biochemical
T3 construct: wild type protein which lacks the N-terminal palmitoylation signal, sAniA; 6xHis (C); made in house; host or cells: Escherichia coli BL21(DE3)
Protocol: as §1, §2

sAniA [5] = biological target: sAniA (Neisseria gonorrhoeae, UniProt Q02219); test: biochemical
Protocol: Biolayer Interferometry. […] Streptavidin (SA) biosensors (ForteBio) were loaded with C7-3Bio peptides for 10 min. Unloaded tips were used as a control. The sAniA samples were prepared in Kinetic Buffer in concentrations of 50, 100, 500, and 1000 nM. The baseline was established for 240 s and the association and dissociation steps were performed for 500 s. Experiments were performed in three biological replicates with the curve fitting using 2:1 (Heterogeneous Ligand) model and KD value calculations were completed using Octet Data Analysis (version 9).

| Compound | IC50 [4] | Kd (sAniA [5]) | Inhibition of nitrite reductase activity of intact gonococci ([3]; 0.6 mM peptide) | other results |
| --- | --- | --- | --- | --- |
| H-KHYYGGDTTTLWGGGS-NH2 [12-5, synthetic version of the dodecameric phage-display hit 12-5] |  |  |  | Relative binding of phage-displayed peptide to sAniA (in words) (sAniA [1]): best binding; Influence on AniA enzymatic activity (in words) [2]: did not influence AniA enzymatic activity; Effect on AniA activity of intact gonococci (in words) ([3]; highest tested concentration, 0.6 mM): no effect |
| H-ACNYSRLNLWGGGS-NH2 [C7-3mod1] |  |  |  | Inhibition of AniA in intact gonococci (in words) ([3]; 0.15-0.6 mM tested, concentration not given): inhibited AniA moderately |
| CC(C)C[C@H](NC(=O)[C@H](CC(N)=O)NC(=O)[C@H](CC(C)C)NC(=O)[C@H](CCCNC(=N)N)NC(=O)[C@H](CS)NC(=O)[C@H](Cc1ccccc1)NC(=O)[C@H](CC(N)=O)NC(=O)[C@H](CS)NC(=O)[C@H](C)N)C(=O)N[C@@H](Cc1c[nH]c2ccccc12)C(=O)NCC(=O)NCC(=O)NCC(=O)N[C@@H](CO)C(N)=O [C7-3P] (H-ACNFCRLNLWGGGS-NH2) | > 105000 nM |  |  |  |
| CC(C)C[C@H](NC(=O)[C@H](CC(N)=O)NC(=O)[C@H](CC(C)C)NC(=O)[C@H](CCCNC(=N)N)NC(=O)[C@H](CS)NC(=O)[C@H](Cc1ccc(O)cc1)NC(=O)[C@H](CC(N)=O)NC(=O)[C@H](CS)NC(=O)[C@H](C)N)C(=O)N[C@@H](Cc1c[nH]c2ccccc12)C(=O)NCC(=O)NCC(=O)NCC(=O)N[C@@H](CO)C(N)=O [C7-3] (H-ACNYCRLNLWGGGS-NH2) | 10100 nM | 775 ± 88.5 nM | 50% |  |
| CC(C)C[C@H](NC(=O)[C@H](CC(N)=O)NC(=O)[C@H](CC(C)C)NC(=O)[C@H](CCCNC(=N)N)NC(=O)[C@H](CS)NC(=O)[C@H](Cc1ccc(O)cc1)NC(=O)[C@H](CO)NC(=O)[C@H](CS)NC(=O)[C@H](C)N)C(=O)N[C@@H](Cc1c[nH]c2ccccc12)C(=O)NCC(=O)NCC(=O)NCC(=O)N[C@@H](CO)C(N)=O [C7-3mod2] (H-ACSYCRLNLWGGGS-NH2) |  |  | 90% | Inhibition of nitrite reductase activity of intact gonococci ([3]; 0.3 mM peptide): 50% |
| CC(C)C[C@H](NC(=O)[C@H](CC(N)=O)NC(=O)[C@H](CC(C)C)NC(=O)[C@H](CCCNC(=N)N)NC(=O)[C@H](CS)NC(=O)[C@H](Cc1ccc(O)cc1)NC(=O)[C@H](CC(N)=O)NC(=O)[C@H](CS)NC(=O)[C@H](C)NC(=O)CCCCCNC(=O)CCCC[C@@H]1SC[C@@H]2NC(=O)N[C@@H]21)C(=O)N[C@@H](Cc1c[nH]c2ccccc12)C(=O)NCC(=O)NCC(=O)NCC(=O)N[C@@H](CO)C(N)=O [C7-3Bio] ({Biotin-Ahx}-ACNYCRLNLWGGGS-NH2) |  | 775 ± 88.5 nM |  |  |
